# Results reported in US20200361930A1, “BIFUNCTIONAL MOLECULES THAT DEGRADE EGFR” (Hoffmann-La Roche Inc., priority 2018, published 2020).
# Molecular target: T1, EGFR T790M/L858R/C797S (Homo sapiens, UniProt P00533, C797S/L858R/T790M)
# T1 construct: expressed in transfected cells; host or cells: BaF3 (Ba/F3) cells, lentivirally transduced with a pCDH vector under the PGK promoter
# Assay: EGFR degradation assay (cellular), FRET quantification of total EGFR
# Format: cell-based
# Details: BaF3 EGFR T790M/L858R/C797S cells, 4 hours incubation, total EGFR FRET signal, top concentration 1 μM; read-out: IC50 value (BaF3 EGFR T790M/L858R/C797S degradation)
# Experimental: EGFR Degradation Assay (Cellular)
# The BaF3 parental line was purchased from DSMZ and grown in RPMI media supplemented with 10% FBS and 10 ng/mL interleukin 3 (IL-3) (Thermo Fisher Scientific). EGFR mutants (T790M/L853R, T790M/L853R/C797S) were cloned into the pCDH lentiviral vector (SystemBio) under the control of a PGK promoter and confirmed by DNA sequencing. The resulting gene expression vector for each mutant was mixed with packaging vectors and cotransfected into 2×10E6 HEK293T cells (ATCC) in 10 mL of DMEM media to generate lentiviral particles according to the manufacturers protocol (Origene).
# Three days post-transfection, the viral supernatant was harvested and filtered. In one well of a 12-well plate, 0.5 mL of viral supernatant was added to 2E6 Ba/F3 cells contained in 1.5 mL of RPMI media including 10% FBS, 10 ng/mL IL-3, and 5 μg/mL polybrene (Invitrogen). The plate was centrifuged at 2,000 rpm for 1 hour at room temperature and infected cells were kept in a tissue culture incubator overnight at 37° C. The cells were washed once in fresh BaF3 media and reseeded at 0.5E6 cells/well of a 12-well plate in media supplemented with 0.5 μg/mL puromycin. The cells were maintained in this media for 3 weeks. IL-3-independent, EGFR mutant transformed cells were routinely maintained in RPMI medium supplemented with 10% FBS.
# RPMI 1640 no-phenol red medium and fetal bovine serum (FBS) were purchased from Gibco (Grand Island, N.Y., USA). EGFR total kit and EGFR phospho-Y1068 kit were purchased from Cisbio (Bedford, Mass., USA). BaF3 EGFR mutant cell lines (EGFR T790M/L858R/C797S) cell line was generated in house, according to the protocol reported above. Cell culture flasks and 384-well microplates were acquired from VWR (Radnor, Pa., USA).
# EGFR degradation was determined based on quantification of FRET signal using EGFR total kit. The FRET signal detected correlates with total EGFR protein level in cells. Briefly, test compounds were added to the 384-well plate from a top concentration of 1 μM with 11 points, half log titration in quadruplicates. Then, BaF3 EGFR mutant cell lines (EGFR T790M/L858R/C797S) were added into 384-well plates at a cell density of 10000 cells per well. The plates were kept at 37° C. with 5% CO2 for 4 hours. After 4-hour incubation, 4× lysis buffer was added to the cells, and then then microplate was agitated on plate shaker at 500 rpm for 30 minutes at room temperature. Next, total EGFR antibody solution was added to the cells and the cells were incubated for another 4 hours at room temperature. Finally, FRET signal was acquired on EnVision™ Multilabel Reader (PerkinElmer, Santa Clara, Calif., USA). The cells treated in the absence of the test compound were the negative control and lysis buffer with antibody solution only were the positive control.
# T1 sequence (P00533 25-1210 T790M/C797S/L858R): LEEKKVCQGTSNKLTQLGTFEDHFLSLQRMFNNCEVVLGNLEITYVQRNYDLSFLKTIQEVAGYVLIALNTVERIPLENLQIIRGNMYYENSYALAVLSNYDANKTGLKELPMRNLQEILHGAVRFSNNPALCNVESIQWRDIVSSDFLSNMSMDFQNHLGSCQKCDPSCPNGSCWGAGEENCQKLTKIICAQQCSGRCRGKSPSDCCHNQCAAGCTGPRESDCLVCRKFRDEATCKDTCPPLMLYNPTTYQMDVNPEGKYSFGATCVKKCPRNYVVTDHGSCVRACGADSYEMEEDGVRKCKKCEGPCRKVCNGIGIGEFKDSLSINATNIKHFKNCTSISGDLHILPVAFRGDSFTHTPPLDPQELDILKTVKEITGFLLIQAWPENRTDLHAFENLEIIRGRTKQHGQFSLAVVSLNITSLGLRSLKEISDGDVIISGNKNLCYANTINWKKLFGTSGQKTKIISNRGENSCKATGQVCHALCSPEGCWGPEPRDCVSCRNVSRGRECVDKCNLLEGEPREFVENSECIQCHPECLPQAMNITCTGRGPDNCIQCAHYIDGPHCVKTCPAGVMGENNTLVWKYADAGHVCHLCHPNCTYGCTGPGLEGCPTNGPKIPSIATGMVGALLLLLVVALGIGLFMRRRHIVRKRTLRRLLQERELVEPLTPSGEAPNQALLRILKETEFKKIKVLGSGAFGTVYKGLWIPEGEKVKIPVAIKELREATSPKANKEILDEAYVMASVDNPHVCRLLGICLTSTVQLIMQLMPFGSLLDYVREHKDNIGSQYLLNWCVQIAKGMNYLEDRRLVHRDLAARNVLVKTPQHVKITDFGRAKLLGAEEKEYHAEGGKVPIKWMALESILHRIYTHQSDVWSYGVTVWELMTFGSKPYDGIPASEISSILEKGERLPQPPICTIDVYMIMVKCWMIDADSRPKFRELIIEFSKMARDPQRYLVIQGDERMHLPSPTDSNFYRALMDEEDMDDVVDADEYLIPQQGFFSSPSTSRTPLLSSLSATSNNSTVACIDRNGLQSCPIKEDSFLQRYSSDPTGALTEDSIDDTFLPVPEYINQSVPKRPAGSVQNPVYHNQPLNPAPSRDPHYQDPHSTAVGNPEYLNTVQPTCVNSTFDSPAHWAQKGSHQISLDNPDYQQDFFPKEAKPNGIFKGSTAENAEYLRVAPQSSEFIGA
row,DC50,Compound
1,38 nM,"O=C1CCC(N2C(=O)c3cccc(N4CCC(CC(=O)N5CCN(Cc6ccc(C#Cc7ccc8c(c7)C(=O)N(C(C(=O)Nc7ccccn7)c7ccccc7)C8)cn6)CC5)CC4)c3C2=O)C(=O)N1 (racemic) [Example 12, (2RS)-2-[6-[2-[6-[[4-[2-[1-[2-[(3RS)-2,6-Dioxo-3-piperidyl]-1,3-dioxo-isoindolin-4-yl]-4-piperidyl]acetyl]piperazin-1-yl]methyl]-3-pyridyl]ethynyl]-1-oxo-isoindolin-2-yl]-2-phenyl-N-(2-pyridyl)acetamide]"
2,13 nM,"O=C1CCC(N2C(=O)c3cccc(NCCCCN4CCC(NC(=O)c5ccc(C#Cc6ccc7c(c6)C(=O)N(C(C(=O)Nc6nccs6)c6cc(F)ccc6O)C7)cn5)CC4)c3C2=O)C(=O)N1 (racemic) [Example 10, N-[1-[4-[[2-[(3RS)-2,6-Dioxo-3-piperidyl]-1,3-dioxo-isoindolin-4-yl]amino]butyl]-4-piperidyl]-5-[2-[2-[(1RS)-1-(5-fluoro-2-hydroxy-phenyl)-2-oxo-2-(thiazol-2-ylamino)ethyl]-3-oxo-isoindolin-5-yl]ethynyl]pyridine-2-carboxamide]"
3,48 nM,"O=C1CCC(N2C(=O)c3ccc(N4CCC(CN5CCC(NC(=O)c6ccc(C#Cc7ccc8c(c7)C(=O)N(C(C(=O)Nc7ccccn7)c7ccccc7)C8)cn6)CC5)CC4)cc3C2=O)C(=O)N1 (racemic) [Example 11, N-[1-[[1-[2-[(3RS)-2,6-Dioxo-3-piperidyl]-1,3-dioxo-isoindolin-5-yl]-4-piperidyl]methyl]-4-piperidyl]-5-[2-[3-oxo-2-[(1RS)-2-oxo-1-phenyl-2-(2-pyridylamino)ethyl]isoindolin-5-yl]ethynyl]pyridine-2-carboxamide]"
4,52 nM,"O=C1CCC(N2C(=O)c3cccc(NCCCCN4CCC(NC(=O)c5ccc(C#Cc6ccc7c(c6)C(=O)N(C(C(=O)Nc6ccccn6)c6ccccc6)C7)cn5)CC4)c3C2=O)C(=O)N1 (racemic) [Example 9, N-[1-[4-[[2-[(3RS)-2,6-Dioxo-3-piperidyl]-1,3-dioxo-isoindolin-4-yl]amino]butyl]-4-piperidyl]-5-[2-[3-oxo-2-[(1RS)-2-oxo-1-phenyl-2-(2-pyridylamino)ethyl]isoindolin-5-yl]ethynyl]pyridine-2-carboxamide]"
5,20 nM,"O=C1CCC(N2C(=O)c3cccc(NCCCCN4CCC(NC(=O)c5ncc(C#Cc6ccc7c(c6)C(=O)N(C(C(=O)Nc6nccs6)c6ccccc6)C7)cc5F)CC4)c3C2=O)C(=O)N1 (racemic) [Example 8, N-[1-[4-[[2-[(3RS)-2,6-Dioxo-3-piperidyl]-1,3-dioxo-isoindolin-4-yl]amino]butyl]-4-piperidyl]-3-fluoro-5-[2-[3-oxo-2-[(1RS)-2-oxo-1-phenyl-2-(thiazol-2-ylamino)ethyl]isoindolin-5-yl]ethynyl]pyridine-2-carboxamide]"

# Further lines, the molecule ahead of its results:
row,Compound,DC50
1,"O=C1CCC(N2C(=O)c3cccc(NCCCCN4CCC(NC(=O)c5ccc(C#Cc6ccc7c(c6)C(=O)N(C(C(=O)Nc6nccs6)c6ccccc6)C7)cn5)CC4)c3C2=O)C(=O)N1 (racemic) [Example 6, N-[1-[4-[[2-[(3RS)-2,6-Dioxo-3-piperidyl]-1,3-dioxo-isoindolin-4-yl]amino]butyl]-4-piperidyl]-5-[2-[3-oxo-2-[(1RS)-2-oxo-1-phenyl-2-(thiazol-2-ylamino)ethyl]isoindolin-5-yl]ethynyl]pyridine-2-carboxamide]",21 nM
2,"O=C1CCC(N2C(=O)c3cccc(NCCCC(=O)N4CCN(Cc5ccc(C#Cc6ccc7c(c6)C(=O)N(C(C(=O)Nc6nccs6)c6ccccc6)C7)cn5)CC4)c3C2=O)C(=O)N1 (racemic) [Example 4, (2RS)-2-[6-[2-[6-[[4-[4-[[2-[(3RS)-2,6-Dioxo-3-piperidyl]-1,3-dioxo-isoindolin-4-yl]amino]butanoyl]piperazin-1-yl]methyl]-3-pyridyl]ethynyl]-1-oxo-isoindolin-2-yl]-2-phenyl-N-thiazol-2-yl-acetamide]",14 nM
3,"O=C1CCC(N2C(=O)c3cccc(NCCCCCC(=O)N4CCN(Cc5ccc(C#Cc6ccc7c(c6)C(=O)N(C(C(=O)Nc6nccs6)c6ccccc6)C7)cc5)CC4)c3C2=O)C(=O)N1 (racemic) [Example 1, (2RS)-2-[6-[2-[4-[[4-[6-[[2-[(3RS)-2,6-Dioxo-3-piperidyl]-1,3-dioxo-isoindolin-4-yl]amino]hexanoyl]piperazin-1-yl]methyl]phenyl]ethynyl]-1-oxo-isoindolin-2-yl]-2-phenyl-N-thiazol-2-yl-acetamide]",40 nM
4,"O=C1CCC(N2C(=O)c3cccc(NCCCC(=O)N4CCC(NC(=O)c5ccc(C#Cc6ccc7c(c6)C(=O)N(C(C(=O)Nc6nccs6)c6ccccc6)C7)cn5)CC4)c3C2=O)C(=O)N1 (racemic) [Example 2, N-[1-[4-[[2-[(3RS)-2,6-Dioxo-3-piperidyl]-1,3-dioxo-isoindolin-4-yl]amino]butanoyl]-4-piperidyl]-5-[2-[3-oxo-2-[(1RS)-2-oxo-1-phenyl-2-(thiazol-2-ylamino)ethyl]isoindolin-5-yl]ethynyl]pyridine-2-carboxamide]",21 nM
5,"O=C1CCC(N2C(=O)c3cccc(NCC(=O)N4CCC(NC(=O)c5ccc(C#Cc6ccc7c(c6)C(=O)N(C(C(=O)Nc6nccs6)c6ccccc6)C7)cn5)CC4)c3C2=O)C(=O)N1 (racemic) [Example 5, N-[1-[2-[[2-[(3RS)-2,6-Dioxo-3-piperidyl]-1,3-dioxo-isoindolin-4-yl]amino]acetyl]-4-piperidyl]-5-[2-[3-oxo-2-[(1RS)-2-oxo-1-phenyl-2-(thiazol-2-ylamino)ethyl]isoindolin-5-yl]ethynyl]pyridine-2-carboxamide]",18 nM
6,"O=C1CCC(N2C(=O)c3cccc(NCCCC(=O)N4CCC(NC(=O)c5ccc(C#Cc6ccc7c(c6)C(=O)N(C(C(=O)Nc6nccs6)c6cc(F)ccc6O)C7)cn5)CC4)c3C2=O)C(=O)N1 (racemic) [Example 7, N-[1-[4-[[2-[(3RS)-2,6-Dioxo-3-piperidyl]-1,3-dioxo-isoindolin-4-yl]amino]butanoyl]-4-piperidyl]-5-[2-[2-[(1RS)-1-(5-fluoro-2-hydroxy-phenyl)-2-oxo-2-(thiazol-2-ylamino)ethyl]-3-oxo-isoindolin-5-yl]ethynyl]pyridine-2-carboxamide]",12 nM
7,"O=C1CCC(N2C(=O)c3cccc(NCCCC(=O)N4CCN(Cc5ccc(C#Cc6ccc7c(c6)C(=O)N(C(C(=O)Nc6nccs6)c6ccccc6)C7)cc5)CC4)c3C2=O)C(=O)N1 (racemic) [Example 3, (2RS)-2-[6-[2-[4-[[4-[4-[[2-[(3RS)-2,6-Dioxo-3-piperidyl]-1,3-dioxo-isoindolin-4-yl]amino]butanoyl]piperazin-1-yl]methyl]phenyl]ethynyl]-1-oxo-isoindolin-2-yl]-2-phenyl-N-thiazol-2-yl-acetamide]",35 nM
